Assay results published in ChEMBL document CHEMBL2311460, “Synthesis and antiplasmodial activity of some 1-azabenzanthrone derivatives” (Bioorg Med Chem Lett, 2013).

Experiments:
[1] = Selectivity index, ratio of IC50 for human MRC5 cells to IC50 for chloroquine-resistant Plasmodium falciparum FCR-3; assay type: toxicity, cell-based; conditions: read-out: Ratio IC50
MRC5 = assay: Cytotoxicity against human MRC5 cells; assay type: cell-based
Plasmodium falciparum = assay: Antiplasmodial activity against chloroquine-resistant Plasmodium falciparum FCR-3 infected in human A positive erythrocytes by [3H]-hypoxanthine incorporation assay; assay type: functional, organism-based; conditions: FCR-3/Gambia

Row | SMILES | selectivity ratio [1] | IC50 (MRC5) [µM] | IC50 (Plasmodium falciparum) [µM]
1 | COc1cc2c3c(nccc3c1[N+](=O)[O-])-c1ccccc1C2=O | 0.49 | 10.2 | 21
2 | COc1cc2c3c(nccc3c1N)-c1ccccc1C2=O | 0.37 | 37 | 100
3 | COc1cc2c3c(c1)C(=O)c1ccccc1C3=NCC2 | 32.4 | 81.3 | 2.5
4 | COc1cc2c3c(nccc3c1)-c1ccccc1C2=O | > 15.6 | > 100 | 6.4
5 | COc1cc2ccnc3c2c(c1[N+](=O)[O-])C(=O)c1ccccc1-3 | 1.42 | 80 | 56
6 | COc1cc2ccnc3c2c(c1O)C(=O)c1ccccc1-3 | 1.27 | 65.1 | 51
7 | COc1cc2c3c(nccc3c1Br)-c1ccccc1C2=O | > 1.99 | > 100 | 52
8 | COc1cc2ccnc3c2c(c1OC)C(=O)c1ccccc1-3 | 0.68 | 50.5 | 74
9 | O=C1c2ccccc2-c2ncc(Br)c3cccc1c23 | > 0.38 | > 100 | 260
10 | COc1cc2c3c(ncc(Br)c3c1)-c1ccccc1C2=O | 0.13 | 28.9 | 220
11 | O=C1c2ccccc2-c2nccc3cccc1c23 | 0.18 | 41.6 | 230
12 | COc1cc2ccnc3c2c(c1N)C(=O)c1ccccc1-3 [LAKSHMININE] | 0.18 | 17.9 | 100
